Target: wild type RET (Homo sapiens (Human), UniProt P07949)
Test: RET Wild Type Assay at KM (Caliper electrophoretic mobility shift)
Type: biochemical
Conditions: 25 μM ATP, 25° C., 120 minutes; read-out: Wild-type RET (RET Inhibitory Activity)

wild type RET, sequence (P07949 29-1114): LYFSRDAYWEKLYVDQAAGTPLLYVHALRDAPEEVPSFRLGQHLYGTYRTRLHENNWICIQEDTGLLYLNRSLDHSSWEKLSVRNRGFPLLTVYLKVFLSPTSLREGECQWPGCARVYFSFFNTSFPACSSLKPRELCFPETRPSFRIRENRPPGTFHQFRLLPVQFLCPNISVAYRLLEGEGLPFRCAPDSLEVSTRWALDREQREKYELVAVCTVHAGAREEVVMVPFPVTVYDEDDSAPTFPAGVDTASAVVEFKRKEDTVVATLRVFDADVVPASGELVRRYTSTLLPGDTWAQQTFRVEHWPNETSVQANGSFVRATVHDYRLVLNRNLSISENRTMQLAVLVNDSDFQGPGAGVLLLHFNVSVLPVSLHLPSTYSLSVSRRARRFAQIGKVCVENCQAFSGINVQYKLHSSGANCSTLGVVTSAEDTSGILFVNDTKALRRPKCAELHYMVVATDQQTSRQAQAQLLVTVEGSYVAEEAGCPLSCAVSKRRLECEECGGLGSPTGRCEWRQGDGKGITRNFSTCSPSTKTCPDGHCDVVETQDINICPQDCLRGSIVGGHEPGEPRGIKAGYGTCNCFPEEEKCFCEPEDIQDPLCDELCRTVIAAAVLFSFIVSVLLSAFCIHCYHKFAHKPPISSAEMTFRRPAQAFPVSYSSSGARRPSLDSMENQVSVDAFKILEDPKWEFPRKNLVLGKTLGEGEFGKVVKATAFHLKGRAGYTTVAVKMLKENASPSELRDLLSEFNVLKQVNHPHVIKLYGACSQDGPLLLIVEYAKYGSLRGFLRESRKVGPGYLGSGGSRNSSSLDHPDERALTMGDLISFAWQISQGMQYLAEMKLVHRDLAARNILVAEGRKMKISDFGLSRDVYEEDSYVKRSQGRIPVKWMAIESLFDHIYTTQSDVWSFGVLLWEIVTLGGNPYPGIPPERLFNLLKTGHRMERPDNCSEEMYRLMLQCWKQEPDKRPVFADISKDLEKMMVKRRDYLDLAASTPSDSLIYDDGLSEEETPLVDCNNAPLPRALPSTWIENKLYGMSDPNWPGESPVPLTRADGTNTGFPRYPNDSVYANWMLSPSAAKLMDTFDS

Row | Structure (SMILES) | IC50
1 | Cc1cc(Nc2cc(C)[nH]n2)nc([C@H]2C[C@H](C(=O)NCc3ccc(-n4cccn4)nc3)C2)c1 [Compound 100] | < 1 nM
2 | Cc1cc(Nc2cc(C)[nH]n2)nc([C@H]2C[C@H](C(=O)N[C@H](C)c3ccc(-n4cccn4)nc3)C2)c1 [Compound 101] | < 1 nM
3 | Cc1cc(Nc2cc(C)[nH]n2)nc([C@H]2C[C@H](C(=O)N[C@@H](C)c3ccc(-n4cc(F)cn4)nc3)C2)c1 [Compound 102] | < 1 nM
4 | Cc1cc(Nc2cc(C)[nH]n2)nc([C@H]2C[C@@H](C(=O)N[C@@H](C)c3ccc(-n4cc(F)cn4)nc3)C2)c1 [Compound 103] | 10 to 100 nM
5 | Cc1cc(Nc2cc(C)[nH]n2)nc([C@H]2C[C@H](C(=O)N[C@H](C)c3cnc(-n4cc(F)cn4)cn3)C2)c1 [Compound 104] | < 1 nM
6 | Cc1cc(Nc2cc(C)[nH]n2)nc([C@H]2C[C@H](C(=O)N[C@@H](C)c3ccc(-n4cc(F)cn4)nc3)C2)n1 [Compound 105] | < 1 nM
7 | Cc1cc(Nc2cc(C)[nH]n2)nc([C@H]2C[C@@](C)(C(=O)N[C@@H](C)c3ccc(-n4cc(F)cn4)nc3)C2)n1 [Compound 107, (1S,3R)—N—((S)-1-(6-(4-fluoro-1H-pyrazol-1-yl)pyridin-3-yl)ethyl)-1-methyl-3-(4-methyl-6-((5-methyl-1H-pyrazol-3-yl)amino)pyrimidin-2-yl)cyclobutane-1-carboxamide] | 1.01 to 10 nM
8 | Cc1cc(Nc2cc(C)[nH]n2)nc([C@H]2C[C@](C)(C(=O)N[C@@H](C)c3ccc(-n4cc(F)cn4)nc3)C2)n1 [Compound 108, (1R,3S)—N—((S)-1-(6-(4-fluoro-1H-pyrazol-1-yl)pyridin-3-yl)ethyl)-1-methyl-3-(4-methyl-6-((5-methyl-1H-pyrazol-3-yl)amino)pyrimidin-2-yl)cyclobutane-1-carboxamide] | < 1 nM
9 | Cc1cc(Nc2cc(C)[nH]n2)nc([C@]2(O)C[C@@H](C(=O)N[C@@H](C)c3ccc(-n4cc(F)cn4)nc3)C2)c1 [Compound 109] | < 1 nM
10 | Cc1cc(Nc2cc(C)[nH]n2)nc([C@H]2C[C@](C)(C(=O)N[C@@H](C)c3cnc(-n4cc(F)cn4)cn3)C2)n1 [Compound 110] | < 1 nM
11 | Cc1cc(Nc2cc(C)[nH]n2)nc([C@]2(F)C[C@H](C(=O)N[C@@H](C)c3ccc(-n4cc(F)cn4)nc3)C2)c1 [Compound 113, (1S,3R)-3-fluoro-N—((S)-1-(6-(4-fluoro-1H-pyrazol-1-yl)pyridin-3-yl)ethyl)-3-(4-methyl-6-(5-methyl-1H-pyrazol-3-ylamino)pyridin-2-yl)cyclobutanecarboxamide] | 10 to 100 nM
12 | Cc1cc(Nc2cc(C)[nH]n2)nc([C@]2(F)C[C@@H](C(=O)N[C@@H](C)c3ccc(-n4cc(F)cn4)nc3)C2)c1 [Compound 114] | 1.01 to 10 nM
13 | Cc1cc(Nc2cc(C)[nH]n2)nc([C@]2(O)C[C@@H](C(=O)N(C)[C@@H](C)c3ccc(-n4cc(F)cn4)nc3)C2)c1 [Compound 116] | 1.01 to 10 nM
14 | CO[C@]1(c2cc(C)cc(Nc3cc(C)[nH]n3)n2)C[C@H](C(=O)N[C@@H](C)c2ccc(-n3cc(F)cn3)nc2)C1 [Compound 117, (1S,3R)—N—((S)-1-(6-(4-fluoro-1H-pyrazol-1-yl)pyridin-3-yl)ethyl)-3-methoxy-3-(4-methyl-6-((5-methyl-1H-pyrazol-3-yl)amino)pyridin-2-yl)cyclobutane-1-carboxamide] | < 100 nM
15 | Cc1cc(Nc2cc(C)[nH]n2)nc([C@]2(O)C[C@](C)(C(=O)N[C@@H](C)c3ccc(-n4cc(F)cn4)nc3)C2)c1 [Compound 118] | < 100 nM
16 | Cc1cc(Nc2cc(C)[nH]n2)nc([C@]2(O)C[C@@](C)(C(=O)N[C@@H](C)c3ccc(-n4cc(F)cn4)nc3)C2)c1 [Compound 119] | < 1 nM
17 | CO[C@]1(C(=O)N[C@@H](C)c2ccc(-n3cc(F)cn3)nc2)C[C@H](c2cc(C)cc(Nc3cc(C)[nH]n3)n2)C1 [Compound 120] | < 1 nM
18 | CO[C@]1(C(=O)N[C@@H](C)c2ccc(-n3cc(F)cn3)nc2)C[C@H](c2nc(C)cc(Nc3cc(C)[nH]n3)n2)C1 [Compound 121] | < 1 nM
19 | CO[C@]1(C(=O)N[C@@H](C)c2ccc(-n3cc(F)cn3)nc2)C[C@H](c2cc(C)nc(Nc3cc(C)[nH]n3)n2)C1 [Compound 122] | < 1 nM
20 | CO[C@]1(C(=O)N[C@@H](C)c2cnc(-n3cc(F)cn3)cn2)C[C@H](c2nc(C)cc(Nc3cc(C)[nH]n3)n2)C1 [Compound 123] | < 1 nM
21 | CO[C@]1(C(=O)N[C@@H](C)c2cnc(-n3cc(F)cn3)cn2)C[C@H](c2cc(C)nc(Nc3cc(C)[nH]n3)n2)C1 [Compound 124] | < 1 nM
22 | Cc1cc(Nc2cc(C)[nH]n2)nc([C@]2(F)C[C@](C)(C(=O)N[C@@H](C)c3ccc(-n4cc(F)cn4)nc3)C2)c1 [Compound 126] | < 100 nM
23 | CO[C@]1(C(=O)N[C@@H](C)c2ccc(-n3cc(F)cn3)nc2)C[C@](O)(c2cc(C)cc(Nc3cc(C)[nH]n3)n2)C1 [Compound 127] | < 1 nM
24 | CO[C@]1(C(=O)N[C@@H](C)c2ccc(-n3cc(F)cn3)nc2)C[C@@](O)(c2cc(C)cc(Nc3cc(C)[nH]n3)n2)C1 [Compound 128] | < 100 nM
25 | CO[C@]1(C(=O)NCc2cnc(-n3cc(F)cn3)cn2)C[C@H](c2cc(C)nc(Nc3cc(C)[nH]n3)n2)C1 [Compound 131] | 1.01 to 10 nM

Source: patent US10183928B2, “Inhibitors of RET” (BLUEPRINT MEDICINES CORPORATION, priority 2016, dated 2019)
